Results reported in patent US20090186844A1, “SiRNA DELIVERY INTO MAMMALIAN NERVE CELLS” (priority 2003, published 2009).
Structures can show the parent of a compound that is named as a salt.

Legend:
[1] = tested on: BDNF protein concentration in ventral C3-C5; experiment: Ventral C3-C5 BDNF protein concentration (ELISA) after intermittent hypoxia, intrathecal drug pretreatment; assay type: in vivo, rat; conditions: 60 min post-intermittent hypoxia, intrathecal methysergide 250 microgram/kg or emetine 1 μg/kg 30 min prior
Protocol: (§1) Surgical procedures have been described elsewhere (7). Rats were anesthetized with isoflurane (2.5% in 50% O2), vagotomized and pump-ventilated (Harvard Apparatus, South Natick, Mass.). The phrenic nerve was dissected, cut distally and desheathed. A laminectomy was performed over C2, and a silicone catheter (2 French, Access Technologies; Skokie, Ill.) connected to a 50 μl glass syringe (Hamilton; Reno Nev.) was advanced through a small hole in the dura at C2, such that the tip of the catheter lay over C4-C5. Following surgery, rats were converted to urethane anesthesia (1.6 g/kg, i.v.) and were paralyzed with pancuronium bromide (2.5 mg/kg). Supplemental doses of urethane were given as necessary. […] End-tidal PCO2 was monitored using a flow-through capnograph (Novametrix, Wallingford, Conn.). […]
Ninety minutes after surgery, stable integrated phrenic discharge was established in hyperoxia (baseline; 50% O2, PaO2>120 mmHg), with CO2 added to the inspired gas so that PaCO2 was 2-3 mmHg above the CO2 apneic threshold (45 mmHg). […] Blood gases were measured before, during, and 15, 30 and 60 min post-intermittent hypoxia or hypercapnia, or at corresponding times in control rats (without hypoxia or hypercapnia). […]

phrenic LTF = experiment: pLTF following sustained hypoxia after protein phosphatase inhibition; assay type: in vivo, rat; conditions: okadaic acid 0.15 mg; 20 mM intrathecally to C4 30 min prior to sustained hypoxia (25 min)
Protocol: Air, O2 and/or N2 were mixed to achieve the desired pattern of inspired oxygen concentration. […] Control groups receiving similar surgery or treatments, but not receiving hypoxia, […].
Accordingly, in one anesthetized rat, […] okadaic acid (0.15 mg; 20 mM), a protein phosphatase 1/2A (PP1 and PP2A) inhibitor, was delivered intrathecally to C4 30 min prior to sustained hypoxia (25 min). […] This finding has been successfully repeated in three additional rats.

[2] = tested on: phrenic long-term facilitation (pLTF); experiment: pLTF following intermittent hypoxia after intrathecal pretreatment; assay type: in vivo, rat; conditions: for effect on pLTF: one anesthetized rat each, intrathecal, 30 min prior to intermittent hypoxia, UO126 0.4 mg, KN62/KN93 2 mg
Protocol: The phrenic nerve was dissected, cut distally and desheathed. A laminectomy was performed over C2, and a silicone catheter (2 French, Access Technologies; Skokie, Ill.) connected to a 50 μl glass syringe (Hamilton; Reno Nev.) was advanced through a small hole in the dura at C2, such that the tip of the catheter lay over C4-C5. Following surgery, rats were converted to urethane anesthesia (1.6 g/kg, i.v.) and were paralyzed with pancuronium bromide (2.5 mg/kg). Supplemental doses of urethane were given as necessary. […] End-tidal PCO2 was monitored using a flow-through capnograph (Novametrix, Wallingford, Conn.). Periodically throughout the protocol, arterial blood was collected (0.3 ml) in a heparinized syringe to ensure that values remained constant (PaO2<45 mmHg in hypoxia, PaO2>120 mmHg in hyperoxia, PaCO2±1 mmHg from baseline value). Arterial PCO2 was corrected to the target range by adjusting ventilator frequency as necessary.
Ninety minutes after surgery, stable integrated phrenic discharge was established in hyperoxia (baseline; 50% O2, PaO2>120 mmHg), with CO2 added to the inspired gas so that PaCO2 was 2-3 mmHg above the CO2 apneic threshold (45 mmHg). In rats receiving intrathecal injections of vehicle or drug solutions, a bolus injection of 10-15 μl was given, and 30-35 min were allowed for drugs to penetrate the spinal cord prior to beginning protocols. Blood gases were measured before, during, and 15, 30 and 60 min post-intermittent hypoxia or hypercapnia, or at corresponding times in control rats (without hypoxia or hypercapnia).
Intrathecal injections of K252a were performed prior to intermittent hypoxia; K252a was prepared as described above. Intrathecal K252a (n=6) or vehicle (DMSO+artificial CSF; n=5) was delivered 30 min prior to intermittent hypoxia, and phrenic discharge was monitored continuously for 60 min post-intermittent hypoxia.

phrenic burst amplitude = assay type: in vivo, rat
Protocol: To determine if MAP kinase activation is sufficient to facilitate phrenic burst amplitude, one anesthetized rat was intrathecally injected with anisomycin ([…]; 20 mM), a protein synthesis inhibitor that also non-specifically activates MAP kinases.

TrkB receptor (rat) = TrkB receptor (rat) (UniProt Q63604); experiment: cell-based or functional assay
Sequence of TrkB receptor (rat) (Q63604 32-821): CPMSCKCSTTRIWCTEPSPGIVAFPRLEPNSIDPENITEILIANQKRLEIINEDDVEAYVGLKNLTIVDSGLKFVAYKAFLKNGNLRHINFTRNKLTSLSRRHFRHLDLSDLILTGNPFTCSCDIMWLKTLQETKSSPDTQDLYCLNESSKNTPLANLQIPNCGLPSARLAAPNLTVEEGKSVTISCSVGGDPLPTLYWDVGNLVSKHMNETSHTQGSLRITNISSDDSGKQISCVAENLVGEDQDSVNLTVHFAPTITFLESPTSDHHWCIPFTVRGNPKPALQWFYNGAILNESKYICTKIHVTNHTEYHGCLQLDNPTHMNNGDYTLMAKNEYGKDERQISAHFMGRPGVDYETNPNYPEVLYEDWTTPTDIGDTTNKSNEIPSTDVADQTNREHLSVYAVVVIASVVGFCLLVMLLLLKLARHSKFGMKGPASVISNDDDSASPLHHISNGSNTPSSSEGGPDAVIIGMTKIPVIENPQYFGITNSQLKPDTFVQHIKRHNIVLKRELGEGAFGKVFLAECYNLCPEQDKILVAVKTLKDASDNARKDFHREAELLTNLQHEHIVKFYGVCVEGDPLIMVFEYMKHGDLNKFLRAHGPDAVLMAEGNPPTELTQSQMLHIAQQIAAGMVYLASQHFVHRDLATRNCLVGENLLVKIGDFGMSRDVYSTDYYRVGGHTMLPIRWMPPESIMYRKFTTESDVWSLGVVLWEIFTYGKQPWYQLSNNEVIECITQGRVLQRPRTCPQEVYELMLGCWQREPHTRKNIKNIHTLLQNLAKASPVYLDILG

phrenic motor output = experiment: Phrenic activity following intrathecal BDNF injections; assay type: in vivo, rat; conditions: 90 min post-injection
Protocol: as §1
Respiratory-related activity was recorded in the phrenic nerve with a bipolar silver electrode. […] Phrenic activity was digitized, recorded and analyzed using the WINDAQ data acquisition system (DATAQ Instruments, Akron, Ohio).
An intrathecal catheter was placed and 10-13 μl solutions of BDNF (0.1 μg, n=5) or vehicle (artificial CSF+0.1% BSA; n=5) were injected. To determine if intrathecal BDNF injections unintentionally spread beyond the spinal cord to cranial motor pools, the hypoglossal nerve was also dissected, desheathed and recorded. […]

[3] = tested on: hypoglossal nerve activity; experiment: Hypoglossal nerve activity following intrathecal BDNF injections; assay type: in vivo, rat; conditions: intrathecal BDNF 0.1 μg; 90 min post-injection
Protocol: An intrathecal catheter was placed and 10-13 μl solutions of BDNF (0.1 μg, n=5) or vehicle (artificial CSF+0.1% BSA; n=5) were injected. To determine if intrathecal BDNF injections unintentionally spread beyond the spinal cord to cranial motor pools, the hypoglossal nerve was also dissected, desheathed and recorded. […] In another group of rats, two intrathecal catheters were placed over C4, and a bolus injection of the tyrosine kinase inhibitor K252a was given 10 min prior to BDNF injection (BDNF+K252a; BDNF=0.1 μg; K252a=0.15 microgram, n=3). Recombinant human BDNF (Promega Corporation, Madison, Wis.) was dissolved in artificial CSF+0.1% bovine serum albumin (BSA). K252a (Calbiochem; San Diego, Calif.) was initially dissolved in dimethylsulfoxide (DMSO; 100 μg K252a in 1.5 ml DMSO) and frozen in 200 μl aliquots. Prior to experimentation, 0.8 ml artificial CSF was added to a 200 μl aliquot of K252a/DMSO solution, of which 10-15 μl was delivered intrathecally (final concentration of K252a=0.13-0.2 μg; 28 μM). Vehicle delivery was as described above (DMSO+artificial CSF), except K252a was not added. At 30, 60 and 90 min post-injection, arterial blood gases were analyzed to ensure that PaO2 and PaCO2 levels were similar to pre-injection values.

In the case of `CC[C@@H](CO)NC(=O)[C@@H]1C=C2c3cccc4c3c(cn4C)C[C@H]2N(C)C1` [methysergide, methysergide maleate], the “change in ventral cervical BDNF concentration from corresponding drug control” value [1] is reported as −10±8%.

In the case of `C=C1[C@@H](O)[C@@H]2O[C@]3(CC[C@H](/C=C/[C@@H](C)[C@@H]4CC(C)=C[C@@]5(O[C@H](C[C@@](C)(O)C(=O)O)CC[C@H]5O)O4)O3)CC[C@H]2O[C@@H]1[C@@H](O)C[C@H](C)[C@H]1O[C@@]2(CCCCO2)CC[C@H]1C` [okadaic acid], the “pLTF 60 min following sustained hypoxia” value (phrenic LTF) is reported as “a modest pLTF was apparent”.

With `N#CC(=C(/N)Sc1ccccc1N)/C(C#N)=C(/N)Sc1ccccc1N` [UO126] the “effect on pLTF” value [2] was “blocked pLTF” and the “effect of pretreatment on anisomycin-induced increase in phrenic amplitude” value (phrenic burst amplitude; UO126 0.4 mg, 100 mM pretreatment, n=1) was “prevented the effect”.

Work on “Recombinant human BDNF (Promega Corporation) (from UniProt P23560 129-247) (ligand)” yielded an integrated phrenic discharge (percent change from baseline) 90 min after intrathecal BDNF injection in anesthetized rats (% above baseline) (TrkB receptor (rat)) of 125.

`CN([C@@H](Cc1ccc(OS(=O)(=O)c2cccc3cnccc23)cc1)C(=O)N1CCN(c2ccccc2)CC1)S(=O)(=O)c1cccc2cnccc12` [KN62] was tested, and the “effect on pLTF” value [2] was “did not block pLTF”.

In the case of `COc1ccc(C[C@H]2NC[C@H](O)[C@H]2OC(C)=O)cc1` [anisomycin], the “phrenic burst amplitude increase above pre-injection levels” value (phrenic burst amplitude; one anesthetized rat, intrathecal anisomycin 100 mg, 20 mM, thirty min post-injection) is reported as 60%.

With `CC[C@H]1CN2CCc3cc(OC)c(OC)cc3[C@@H]2C[C@@H]1C[C@H]1NCCc2cc(OC)c(OC)cc21` [emetine] the “change in ventral cervical BDNF concentration from corresponding drug control” value [1] was 19±11%.

In the case of `COC(=O)[C@@]1(O)C[C@H]2O[C@]1(C)n1c3ccccc3c3c4c(c5c6ccccc6n2c5c31)C(=O)NC4` [K252a], the “BDNF-induced phrenic facilitation after K252a pre-treatment, change from baseline” value (phrenic motor output; intrathecal K252a 10 min prior to BDNF 0.1 μg) is reported as 9±10% and the “phrenic burst amplitude increase from baseline (pLTF)” value ([2]; 60 min post-intermittent hypoxia, intrathecal K252a 0.13-0.2 μg 30 min prior) is reported as 25±6%.

In the case of `COc1ccc(S(=O)(=O)N(CCO)c2ccccc2CN(C)C/C=C/c2ccc(Cl)cc2)cc1` [KN93], the “effect on pLTF” value [2] is reported as “did not block pLTF”.

B1: BDNF: Recombinant human BDNF (Promega), brain-derived neurotrophic factor (protein)
chain: HSDPARRGELSVCDSISEWVTAADKKTAVDMSGGTVTVLEKVPVSKGQLKQYFYETKCNPMGYTKEGCRGIDKRHWNSQCRTTQSYVRALTMDSKKRIGWRFIRIDTSCVCTLTIKRGR
B1 was tested, and the “integrated phrenic discharge, change above baseline” value (phrenic motor output; intrathecal BDNF 0.1 μg) was 125±25% and the “hypoglossal nerve activity, change from baseline” value [3] was 30±17%.
